In patent publication US20120309683A1, “USE OF […] ADENYLATE CYCLASE-ACTIVATING POLYPEPTIDE (PACAP) AND PACAP ANALOGS AS ADJUNCTIVE TREATMENTS WITH INHIBITORS OF CALCINEURIN OR INHIBITORS OF THE […] TARGET OF RAPAMYCIN (mTOR) COMPLEXES” (The Administrators of the Tulane Educational Fund, priority 2010, published 2012):

Legend:
[1] = system: HK-2 human kidney cells (human renal proximal tubule epithelial cells); test: Tacrolimus-induced loss of viability of HK-2 cells, lactate dehydrogenase in intact cells; type: cell-based; settings: tacrolimus alone, HK-2 cells
Description: The HK-2 human kidney cells were cultured in Keratinocyte-Serum Free Medium supplemented with recombinant epidermal growth factor and bovine pituitary extract. […] Each value represents the mean plus/minus the standard error of five determinations. **p<0.01 and *p<0.05 compared to the cells treated only with tacrolimus.

IL-2 synthesis = settings: cited from earlier work

Question: Which results are given for `C=CC[C@@H]1/C=C(\C)C[C@H](C)C[C@H](OC)[C@H]2O[C@@](O)(C(=O)C(=O)N3CCCC[C@H]3C(=O)O[C@H](/C(C)=C/[C@@H]3CC[C@@H](O)[C@H](OC)C3)[C@H](C)[C@@H](O)CC1=O)[C@H](C)C[C@@H]2OC` [tacrolimus, reference compound]?
Answer: number of viable cells [1]: large significant decrease in the number of viable cells; potency as an inhibitor of IL-2 synthesis relative to cyclosporine A (IL-2 synthesis): about 100 -fold
